We go through 16 compounds from paper PMC5500575, “Identification of Histamine H3 Receptor Ligands Using a New Crystal Structure Fragment-based Method” (Scientific Reports, 2017).

“Also recorded” adds a separate entry of the source.

A word on the Ki: it is a dissociation constant, usually derived from enzyme kinetics or from competition with a known ligand. Low readings indicate a stronger hold on the target, high ones a looser hold on the target. One may read the IC50 as the concentration that gives 50% inhibition. Usually EC50 stands for the midpoint of the concentration-response curve.

One experiment deals with H3 receptor. Also on record: method as in ChEMBL [64]. The settings on record: known H3 ligand; ref ChEMBL [64]; cited from earlier work.
The target in experiment [1] is T1, human histamine H3 receptor (Homo sapiens, UniProt Q9Y5N1).
T1 construct: expressed in transfected cells; host or cells: tsA201 cells (transformed HEK-293), transient transfection
T1 sequence (Q9Y5N1 whole entry): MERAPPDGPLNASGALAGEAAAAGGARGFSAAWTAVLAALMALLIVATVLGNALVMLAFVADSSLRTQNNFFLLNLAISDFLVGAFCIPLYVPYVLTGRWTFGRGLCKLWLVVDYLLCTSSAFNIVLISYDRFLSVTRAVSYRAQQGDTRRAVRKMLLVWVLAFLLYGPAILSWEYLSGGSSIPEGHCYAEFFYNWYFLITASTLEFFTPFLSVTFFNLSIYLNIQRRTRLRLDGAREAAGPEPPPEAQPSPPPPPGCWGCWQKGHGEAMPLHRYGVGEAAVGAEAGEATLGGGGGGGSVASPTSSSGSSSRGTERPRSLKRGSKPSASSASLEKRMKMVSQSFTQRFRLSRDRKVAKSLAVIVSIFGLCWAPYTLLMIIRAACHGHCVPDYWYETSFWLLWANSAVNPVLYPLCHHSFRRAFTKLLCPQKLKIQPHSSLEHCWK
The experiment in a line: IP-One (HTRF IP1 accumulation) assay, H3 receptor co-expressed with chimeric Gqi5 in tsA201 cells. It is filed as cell-based. As to conditions: antagonist mode; for Result of first pharmacological assaying (pharmacophore screening hits): 20 µM compound, EC80 histamine; for IC50 / pIC50 ± SEM: in the presence of EC80 of histamine. As for the experimental part: Human tsA201 cells, a transformed HEK-293 cell line[70], were cultivated in Dulbecco’s Modified Eagle’s Medium (DMEM) with GlutaMAX, supplemented with 10% foetal bovine serum, penicillin 100 U/ml and streptomycin 100 µg/ml. Subconfluent cells grown in a 100 mm dish were transfected with 5 μg DNA using the Polyfect transfection reagent using the protocol of the manufacturer (Qiagen, West Sussex, UK), however with half of the recommended PolyFect volumes. Co-transfections (ratio 4:1) were performed with either constructs expressing the human histamine H3 receptor together with an empty vector and chimeric G protein Gqi5, respectively.
We applied the highly sensitive high-throughput homogeneous time-resolved fluorescence (HTRF) technology[71] for detection of IP-One generation using the Cisbio IP-One Tb assay kit, exactly as previously described. In brief, on the day of assay, ligand solutions were prepared in ligand buffer (Hank’s Balanced Salt Solution (HBSS) containing 20 mM HEPES pH 7.4, 1 mM CaCl2, 1 mM MgCl2, 40 mM LiCl)) and added to the wells of a 384-well OptiPlate (PerkinElmer, Waltham, USA) in triplicates. When testing for antagonist activity the ligand buffer was supplemented with an EC80 concentration of histamine, and we used a final compound concentration of 20 µM and 2 µM for the first (virtual hits) and second (analogues) screening, respectively. Cell suspensions were added and incubated with ligands for 1 hour, followed by the addition of detection solution (IP-One Tb conjugate & Lysis Buffer +2.5% anti-IP1 cryptate Tb conjugate +2.5% IP1-d2 conjugate. 38:1:1) and incubation in the dark for one hour at room temperature. The plate was read on an EnVision 2104 Multilabel Reader (PerkinElmer) by exciting the wells with light of 340 nm and measuring the emission at 615 nm and 665 nm. The fluorescence resonance energy transfer ratios (665 nm/615 nm) were converted to IP1 concentrations by interpolating values from an IP1 standard curve generated from an IP1 calibration stock, provided by the manufacturer (Cisbio).
Data were analysed using GraphPad Prism 6 (GraphPad Software, San Diego, CA, USA). Concentration-response curves were fitted by nonlinear regression to equation (1):1 R=Rmax+Rmax−Rmin/1+10^(logIC50−X)∗nH where X is the logarithm of the concentration, R is the response, R max is the maximal response, R min is the minimal response, IC50 is the concentration giving half-maximum reduction of the response, and nH is the Hill coefficient, which describes the steepness of the curve. IP-One assay results are reported either as raw FRET in arbitrary units, as IP1 concentration (nM) or as fold over basal (normalized to the basal level of IP1 in ligand buffer [IP1]/[IP1]basal). The Z′-factors were calculated using equation (2):2 Z′=1−3σc++3σc−/|µc+−µc−|
In general terms: TR-FRET usually uses a lanthanide donor and a delayed reading to cut background.

The next experiment deals with T2, human H3 receptor (Homo sapiens, UniProt Q9Y5N1).
T2 construct: expressed in transfected cells; host or cells: HEK-293T cells, membranes
T2 sequence (Q9Y5N1 whole entry): as above
The experiment in a line: [3H]N-α-methylhistamine radioligand competition binding assay. The settings on record: for Ki / Affinity (pKi): 0.3 nM [3H]N-α-methylhistamine; for Ki: Cheng-Prusoff with Kd 0.15 nM; for Affinity (pKi): ± SEM; for Change of potency upon repeated experimentation: possibly due to compound breakdown; for Competition with [3H]N-α-methylhistamine binding (in words): 0.3 nM radioligand, NSB defined with 10 µM histamine. As for the experimental part: HEK-239T cells were grown to 70% confluency in 150 mm cell culture dishes and transfected with 8 µg human H3 receptor using the Polyfect transfection reagent as previously described. After 48 hours, cells were washed from each cell culture dish with Dulbecco’s phosphate buffered saline and harvested using a cell scraper. The resulting cell suspension was then centrifuged and resuspended in 500 µL lysis buffer (50 mM Tris-HCl, pH 7.4). The cell lysate was centrifuged at 16,000 g for 20 minutes at 4 °C. The resultant membrane pellets were stored at −80 °C until use. Each pellet was resuspended in 500 µL binding buffer (50 mM Tris-HCl, 0.5 mM EDTA, pH 7.4), homogenized and centrifuged at 16,000 g for 15 minutes at 4 °C, and subsequently resuspended in 15 mL of binding buffer to a desired protein concentration of approximately 0.2 mg/mL as determined by the method of Bradford[73]. The membrane solution (30 µg protein per well) was incubated for 90 minutes in 250 µL of binding buffer, with or without compound, together with 0.3 nM [^3H]N-α-methylhistamine at room temperature. Non-specific binding was defined as the radioligand bound to membrane solution incubated with 10 µM histamine. The binding reaction was terminated by rapid filtration through Whatman GF/C unifilters (PerkinElmer), and washed four times with ice-cold wash buffer (50 mM Tris-HCl, 10 mM MgCl2, 0.1 mM EDTA, pH 7.4) using a 96-well Packard FilterMate cell harvester (PerkinElmer). Finally, Microscint 0 scintillation liquid (PerkinElmer) was added to the dried filters, and the radioactivity quantified in a Packard TopCount NXT microplate Scintillation Counter (PerkinElmer).
The binding data was fitted by nonlinear regression to equation (3):3 Y=Ymax+Ymax−Ymin/1+10^X−logIC50 where X is the logarithm of the concentration, Y is the specific binding, Y max is the maximal specific binding, Y min is the minimal specific binding, and IC50 is the concentration giving half-maximum reduction in specific binding.
In general terms: In a radioligand displacement assay an active substance lowers the binding of a labelled ligand.

For another experiment, the target named is mouse H3 receptor. The settings on record: Gqi5, Ca2+ release; cited from earlier work.

As for `CN(C)CCCNc1c2c(nc3ccccc13)CCCCC2` [ChEMBL 65849], at H3 receptor, the “Affinity (pKi) of most similar ChEMBL ligand” value is listed as 8.0.

As for `CN1CCC(C(=O)c2cc3cc(Cl)ccc3[nH]2)CC1` [ChEMBL 186456], the “Affinity (pKi) of most similar ChEMBL ligand” value at H3 receptor was 5.5.

Consider `CNCc1cc(C#CCCN2CCNC(=O)C2)ccc1Oc1ccc(SC)cc1` [ChEMBL 237514], for which, on H3 receptor, the “Affinity (pKi) of most similar ChEMBL ligand” value is given as 6.1.

For the compound `COc1cccc(OCCN2CCC(N3CCCCC3)CC2)c1` [ChEMBL 460313], the “Affinity (pKi) of most similar ChEMBL ligand” value at H3 receptor is on record as 6.9.

With `c1ccc2c(c1)nc1n(CCN3CCCCC3)cnn21` [ChEMBL 1923529], the “Affinity (pKi) of most similar ChEMBL ligand” value at H3 receptor was 6.2.

Consider `OC1(c2ccccn2)CCCN(c2nnc(N3CCC(N4CCCCC4)CC3)s2)C1` (centres unmarked) [ChEMBL 2048591], for which, on H3 receptor, the “Affinity (pKi) of most similar ChEMBL ligand” value is 7.3.

Turning to `CCN(Cc1nc2ccccc2[nH]1)CC1CCCN(CCc2cccc(OC)c2)C1` (centres unmarked) [Compound 9], the “Result of first pharmacological assaying (pharmacophore screening hits)” value (“Result of first pharmacological assaying” for short) in experiment [1] is on record as “seemingly active”. Besides, at human H3 receptor, the Ki stood at 1.75 µM, the “Affinity (pKi)” value is on record as 5.76±0.25 and the “Change of potency upon repeated experimentation” value is “continued decrease in potency observed upon repeated experimentation”.

Regarding `Cc1nccn1-c1ccc(CNCc2cccc(C#N)c2)cc1F` [Compound 20], the “Result of first pharmacological assaying” value in experiment [1] is listed as “borderline activity”. In addition, on human H3 receptor, the Ki was 4.24 µM, the “Affinity (pKi)” value is 5.37±0.12 and the “Change of potency upon repeated experimentation” value is recorded as “continued decrease in potency observed upon repeated experimentation”.

Consider `Cc1nc(N2CCN(c3ncc[nH]c3=O)CC2)c2sccc2n1` [Compound 21], for which, in experiment [1], the “Result of first pharmacological assaying” value is recorded as “antagonist hits”, the IC50 worked out at 20.9 µM and the “pIC50 ± SEM” value turned out to be 4.68±0.10. Also, at human H3 receptor, the inhibition constant (Ki) is greater than 50 µM and the “Competition with [3H]N-α-methylhistamine binding (in words)” value (shortened to “Competition”) is “little to no effect on radiolabeled ligand binding; also recorded: unable to compete with binding”.

Consider `CCCCN1CN(CCCN2CCCCC2)Cn2c1nc1ccccc12` [Compound 35], for which, in experiment [1], the “Result of first pharmacological assaying” value is “antagonist hits”, the IC50 turned out to be 3.3 µM and the “pIC50 ± SEM” value is reported as 5.5 ± 0.27. At human H3 receptor, the inhibition constant Ki is 1.75 µM and the “Affinity (pKi)” value is 5.76 ± 0.05.

`Cc1ccc2c(c1)c1c3n2CCN(CC(O)CNCc2ccccc2)C3CCC1` (centres unmarked) [Compound 42]: in experiment [1], the “Result of first pharmacological assaying” value is reported as “antagonist hits”, the IC50 is 42.1 µM and the “pIC50 ± SEM” value is reported as 4.38±0.11. Moreover, at human H3 receptor, the Ki came out at 14.8 µM, the “Affinity (pKi)” value stood at 4.83±0.08 and the “Competition” value was “unable to outcompete radiolabeled ligand to NSB levels; also recorded: unable to lower the binding of [^3H]N-α-methylhistamine to non-specific binding levels”.

Turning to `Cc1ccc(CN2CCCN(C(=O)CCSCc3cn4ccccc4n3)CC2)cc1` [Compound 44], the “Result of first pharmacological assaying” value in experiment [1] is recorded as “seemingly active”. Besides, on human H3 receptor, the inhibition constant (Ki) turned out to be 2.82 µM, the “Affinity (pKi)” value came to 5.55±0.06 and the “Competition” value was “unable to outcompete radiolabeled ligand to NSB levels; also recorded: unable to lower the binding of [^3H]N-α-methylhistamine to non-specific binding levels”.

`CCN1CCNC(=O)C1CC(=O)N1CCc2[nH]c3c(C)cccc3c2C1` (centres unmarked) [Compound 64]: in experiment [1], the IC50 was determined as 261 µM and the “pIC50 ± SEM” value was found to be 3.58±0.17. In addition, at human H3 receptor, the affinity corresponds to a Ki of 86.7 µM and the “Affinity (pKi)” value is given as 4.06±0.11.

Regarding `CCCCN1CN(CCCN(C)c2ccccc2)Cn2c1nc1ccccc12` [Compound 68], in experiment [1], the half-maximal inhibitory concentration (IC50) came out at 22 µM and the “pIC50 ± SEM” value was 4.66±0.20. At human H3 receptor, the Ki is greater than 300 µM and the “Competition” value is reported as “little to no effect on radiolabeled ligand binding; also recorded: unable to compete with binding”.

For the compound `Cc1ccc2c(c1)c1c3n2CCN(CC(O)CN2CCN(C)CC2)C3CCC1` (centres unmarked) [Compound 75], in experiment [1], the IC50 was found to be 121 µM and the “pIC50 ± SEM” value is listed as 3.92±0.18. For the same compound, on human H3 receptor, the affinity corresponds to a Ki of 4.82 µM and the “Affinity (pKi)” value was 5.32±0.04.

With `NCCc1c[nH]cn1` [histamine], the EC50 on mouse H3 receptor was 0.0218 µM.
